One test addresses FGFR1 (h) (Homo sapiens, UniProt P11362). Put plainly: FGFR1 (enzymatic assay), TR-FRET. The test is classed as biochemical. To be noted: read-out: FGFR 1 pIC50 (converted). (In TR-FRET formats the signal depends on donor and acceptor labels being close together.)
Another test concerns the target FGFR2 (h) (Homo sapiens, UniProt P21802). The test is described as follows: FGFR2 (enzymatic assay), TR-FRET. It is filed as biochemical. As to conditions: enzymatic assay; read-out: FGFR 2 pIC50 (converted). Put shortly:
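Phosphorylation of 500 nM Btn-Flt3 by human FGFR2 (150 ng/ml) is measured at 0.4 μM ATP. The buffer is 50 mM HEPES pH 7.5 containing 6 mM MnCl2, 1 mM DTT, 0.1 mM Na3VO4 and 0.01% Triton-X-100, and compound is tested at 1% DMSO final.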

A further test deals with FGFR4 (h) (Homo sapiens, UniProt P22455). The test is described as follows: FGFR4 (enzymatic assay), TR-FRET. The test is classed as biochemical. As to conditions: FGFR 4 pIC50, enzymatic assay.
Test [1] has as its target T1, Ba/F3-FGFR1-transfected cells (Homo sapiens, UniProt P11362).
T1 construct: BAF3-FGFR1 (MIN IL3) pIC50; other: minus IL3
Put plainly: Ba/F3-FGFR1 (minus IL3) cellular proliferation assay, Alamar Blue. The test is classed as cell-based. Put shortly:
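Ba/F3-FGFR1 cells, 20000/well, RPMI-1640 + 10% FBS + 2 mM L-Gln; compound in DMSO; 24 h, 37 °C, 5% CO2; Alamar Blue 4 h; RFU ex 540/em 590.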
A general note: Resazurin is reduced to fluorescent resorufin, in cell work by metabolically active cells.

The subject of test [2] is Ba/F3-FGFR1-transfected cells. Put plainly: Ba/F3-FGFR1 (plus IL3) cellular proliferation assay, counterscreen with 10 ng/ml murine IL3. The test is classed as cell-based. As to conditions: plus IL3 (10 ng/ml murine IL3, counterscreen); read-out: BAF3-FGFR1 (PLUS IL3) pIC50 (converted). The method in brief: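 Proliferation read-out: resazurin-based Alamar Blue fluorescence (540/590 nm) after 4 h, following 24 h compound treatment of 20000 Ba/F3-FGFR1 cells per well in 10% FBS RPMI at 37° C. IL3 counterscreen used the same protocol plus 10 ng/ml murine IL3.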

Test [3] has as its system Ba/F3-FGFR3-transfected cells. Put plainly: Ba/F3-FGFR3 (plus IL3) cellular proliferation assay, counterscreen with 10 ng/ml murine IL3. It is filed as cell-based. As to conditions: plus IL3 (10 ng/ml murine IL3, counterscreen); read-out: BAF3-FGFR3 (PLUS IL3) pIC50 (converted). Put shortly: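 FGFR3-Ba/F3, 20000 cells/well, RPMI-1640 + 10% FBS, no phenol red; cpd in DMSO; 24 h, 37° C/5% CO2. Alamar Blue 4 h, RFU ex540/em590. Counterscreen: + murine IL3 10 ng/ml.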

Test [4] has as its target T2, Ba/F3-KDR-transfected cells (Homo sapiens, UniProt P35968).
T2 construct: BAF3-KDR (MIN IL3) pIC50; other: minus IL3
Put plainly: Ba/F3-KDR (minus IL3) cellular proliferation assay, Alamar Blue. The test is classed as cell-based. Put shortly:
(§1)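 Cells grown with test compound at 37° C and 5% CO2 for 24 hours were given a resazurin/ferricyanide/ferrocyanide reagent for 4 hours before fluorescence (540/590 nm) was recorded.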

The test system of test [5] is Ba/F3-KDR-transfected cells. The test is described as follows: Ba/F3-KDR (plus IL3) cellular proliferation assay, counterscreen with 10 ng/ml murine IL3. As to conditions: plus IL3 (10 ng/ml murine IL3, counterscreen); read-out: BAF3-KDR (PLUS IL3) pIC50 (converted). It is filed as cell-based. The method in brief:
as §1
(The purpose of a counterscreen is to sort out artefacts and off-target activity.)

In test [6] the target is Ba/F3-FGFR4-transfected cells (Homo sapiens, UniProt P22455). Put plainly: Ba/F3-FGFR4 cellular proliferation assay, Alamar Blue. The test is classed as cell-based. Put shortly:
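Here, cells seeded at 20000 per well were treated 24 hours with compound, then given a 4-hour Alamar Blue incubation at 37° C before RFU measurement at ex. 540 nm and em. 590 nm.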

T2 sequence (P35968 whole entry, change not shown): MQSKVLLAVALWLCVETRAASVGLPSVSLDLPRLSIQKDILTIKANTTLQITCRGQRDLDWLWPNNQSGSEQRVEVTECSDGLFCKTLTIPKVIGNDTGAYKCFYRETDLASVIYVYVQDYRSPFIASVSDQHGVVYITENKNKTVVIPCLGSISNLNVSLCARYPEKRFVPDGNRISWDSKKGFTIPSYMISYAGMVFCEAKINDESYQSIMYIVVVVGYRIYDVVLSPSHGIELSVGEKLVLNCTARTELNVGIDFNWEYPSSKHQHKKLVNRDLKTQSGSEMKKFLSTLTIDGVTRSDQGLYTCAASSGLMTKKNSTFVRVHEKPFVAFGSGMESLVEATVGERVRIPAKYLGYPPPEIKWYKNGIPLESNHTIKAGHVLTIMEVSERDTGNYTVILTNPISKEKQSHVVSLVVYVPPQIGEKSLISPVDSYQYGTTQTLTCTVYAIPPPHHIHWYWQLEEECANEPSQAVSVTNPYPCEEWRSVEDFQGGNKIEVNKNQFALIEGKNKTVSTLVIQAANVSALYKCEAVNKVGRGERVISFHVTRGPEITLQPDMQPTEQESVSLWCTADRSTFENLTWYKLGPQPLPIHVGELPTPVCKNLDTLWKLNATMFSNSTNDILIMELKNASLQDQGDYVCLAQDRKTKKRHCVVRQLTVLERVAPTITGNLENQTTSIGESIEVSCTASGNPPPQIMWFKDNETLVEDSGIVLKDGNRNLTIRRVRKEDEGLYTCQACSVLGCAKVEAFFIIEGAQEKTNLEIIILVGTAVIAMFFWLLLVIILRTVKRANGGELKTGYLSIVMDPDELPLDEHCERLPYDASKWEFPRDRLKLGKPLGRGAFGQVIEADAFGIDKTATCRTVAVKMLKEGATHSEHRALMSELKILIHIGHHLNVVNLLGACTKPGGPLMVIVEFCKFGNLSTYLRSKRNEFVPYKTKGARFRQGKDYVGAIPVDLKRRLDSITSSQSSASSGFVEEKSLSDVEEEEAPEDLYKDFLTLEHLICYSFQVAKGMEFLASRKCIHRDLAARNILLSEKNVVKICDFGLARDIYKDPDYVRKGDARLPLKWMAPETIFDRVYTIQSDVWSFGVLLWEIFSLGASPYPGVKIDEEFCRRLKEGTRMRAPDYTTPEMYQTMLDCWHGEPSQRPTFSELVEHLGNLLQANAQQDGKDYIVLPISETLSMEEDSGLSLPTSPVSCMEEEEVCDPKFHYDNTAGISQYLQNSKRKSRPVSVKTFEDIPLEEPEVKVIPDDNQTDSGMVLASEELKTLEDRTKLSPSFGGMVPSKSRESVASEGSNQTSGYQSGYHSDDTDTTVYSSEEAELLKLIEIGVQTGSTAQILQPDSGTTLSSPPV
Chain of FGFR1 (h) (P11362 22-822): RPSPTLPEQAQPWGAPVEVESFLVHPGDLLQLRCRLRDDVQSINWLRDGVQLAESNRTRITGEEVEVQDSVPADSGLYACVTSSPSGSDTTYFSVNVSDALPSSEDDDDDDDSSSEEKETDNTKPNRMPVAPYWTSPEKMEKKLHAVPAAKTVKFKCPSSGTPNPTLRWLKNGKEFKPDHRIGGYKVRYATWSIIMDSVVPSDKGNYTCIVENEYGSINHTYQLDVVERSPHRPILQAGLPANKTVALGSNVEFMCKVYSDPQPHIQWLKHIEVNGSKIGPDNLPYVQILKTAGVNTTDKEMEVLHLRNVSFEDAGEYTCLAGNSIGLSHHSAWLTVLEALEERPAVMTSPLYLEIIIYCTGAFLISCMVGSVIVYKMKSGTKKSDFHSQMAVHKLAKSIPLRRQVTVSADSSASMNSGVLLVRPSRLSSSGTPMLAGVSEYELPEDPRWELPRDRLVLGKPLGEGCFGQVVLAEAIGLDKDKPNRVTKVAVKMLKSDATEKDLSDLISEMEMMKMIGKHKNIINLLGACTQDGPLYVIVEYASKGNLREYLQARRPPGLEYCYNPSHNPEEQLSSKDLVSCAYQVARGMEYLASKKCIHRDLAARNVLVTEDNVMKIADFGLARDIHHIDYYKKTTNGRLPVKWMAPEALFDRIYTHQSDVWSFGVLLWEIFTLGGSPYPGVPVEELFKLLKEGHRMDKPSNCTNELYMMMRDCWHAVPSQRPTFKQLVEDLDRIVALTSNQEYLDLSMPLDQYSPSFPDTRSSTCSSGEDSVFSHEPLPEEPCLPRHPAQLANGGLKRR
T1 sequence (P11362 whole entry, change not shown): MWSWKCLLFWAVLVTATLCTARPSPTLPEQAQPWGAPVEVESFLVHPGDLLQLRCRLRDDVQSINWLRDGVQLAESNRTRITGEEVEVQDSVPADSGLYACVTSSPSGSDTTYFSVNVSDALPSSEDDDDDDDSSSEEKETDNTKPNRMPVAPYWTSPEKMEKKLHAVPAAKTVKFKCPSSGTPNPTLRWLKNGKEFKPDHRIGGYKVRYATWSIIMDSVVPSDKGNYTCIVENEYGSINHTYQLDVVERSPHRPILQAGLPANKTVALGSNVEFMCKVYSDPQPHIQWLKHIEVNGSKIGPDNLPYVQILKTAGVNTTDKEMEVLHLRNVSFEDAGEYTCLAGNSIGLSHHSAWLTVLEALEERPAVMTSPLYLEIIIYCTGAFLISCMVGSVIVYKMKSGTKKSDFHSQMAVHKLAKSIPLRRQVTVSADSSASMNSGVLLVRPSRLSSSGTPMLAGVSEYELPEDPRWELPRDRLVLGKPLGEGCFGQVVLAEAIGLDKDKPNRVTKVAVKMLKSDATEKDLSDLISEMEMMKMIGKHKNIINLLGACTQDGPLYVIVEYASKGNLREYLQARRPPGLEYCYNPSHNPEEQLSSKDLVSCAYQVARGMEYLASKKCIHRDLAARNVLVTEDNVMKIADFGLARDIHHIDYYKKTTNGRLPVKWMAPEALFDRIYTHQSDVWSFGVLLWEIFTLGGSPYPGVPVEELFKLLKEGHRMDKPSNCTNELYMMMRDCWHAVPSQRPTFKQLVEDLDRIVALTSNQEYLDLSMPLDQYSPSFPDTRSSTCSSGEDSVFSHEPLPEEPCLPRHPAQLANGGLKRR
Chain of FGFR2 (h) (P21802 22-821): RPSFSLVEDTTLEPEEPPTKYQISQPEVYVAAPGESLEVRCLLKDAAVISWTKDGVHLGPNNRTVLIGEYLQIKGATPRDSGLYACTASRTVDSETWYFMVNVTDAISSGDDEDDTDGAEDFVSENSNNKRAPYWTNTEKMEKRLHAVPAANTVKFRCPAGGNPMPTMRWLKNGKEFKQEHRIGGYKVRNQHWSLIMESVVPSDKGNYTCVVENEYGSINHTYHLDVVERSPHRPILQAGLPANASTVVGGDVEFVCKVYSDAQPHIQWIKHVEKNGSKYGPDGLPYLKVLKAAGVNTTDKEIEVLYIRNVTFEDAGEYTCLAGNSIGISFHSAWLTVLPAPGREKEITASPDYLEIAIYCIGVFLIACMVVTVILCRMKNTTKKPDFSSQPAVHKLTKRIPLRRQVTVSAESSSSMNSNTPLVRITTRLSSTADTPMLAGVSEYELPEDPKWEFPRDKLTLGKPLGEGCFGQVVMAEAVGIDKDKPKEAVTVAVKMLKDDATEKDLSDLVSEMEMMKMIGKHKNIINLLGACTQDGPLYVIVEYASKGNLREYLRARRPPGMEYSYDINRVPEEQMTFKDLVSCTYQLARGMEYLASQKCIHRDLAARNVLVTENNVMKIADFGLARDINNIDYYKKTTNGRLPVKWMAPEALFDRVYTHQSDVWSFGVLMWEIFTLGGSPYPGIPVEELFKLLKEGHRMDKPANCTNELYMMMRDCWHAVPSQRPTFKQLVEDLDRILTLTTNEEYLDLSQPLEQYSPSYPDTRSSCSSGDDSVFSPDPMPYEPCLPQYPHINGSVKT
Chain of Ba/F3-FGFR4-transfected cells (P22455 whole entry, change not shown): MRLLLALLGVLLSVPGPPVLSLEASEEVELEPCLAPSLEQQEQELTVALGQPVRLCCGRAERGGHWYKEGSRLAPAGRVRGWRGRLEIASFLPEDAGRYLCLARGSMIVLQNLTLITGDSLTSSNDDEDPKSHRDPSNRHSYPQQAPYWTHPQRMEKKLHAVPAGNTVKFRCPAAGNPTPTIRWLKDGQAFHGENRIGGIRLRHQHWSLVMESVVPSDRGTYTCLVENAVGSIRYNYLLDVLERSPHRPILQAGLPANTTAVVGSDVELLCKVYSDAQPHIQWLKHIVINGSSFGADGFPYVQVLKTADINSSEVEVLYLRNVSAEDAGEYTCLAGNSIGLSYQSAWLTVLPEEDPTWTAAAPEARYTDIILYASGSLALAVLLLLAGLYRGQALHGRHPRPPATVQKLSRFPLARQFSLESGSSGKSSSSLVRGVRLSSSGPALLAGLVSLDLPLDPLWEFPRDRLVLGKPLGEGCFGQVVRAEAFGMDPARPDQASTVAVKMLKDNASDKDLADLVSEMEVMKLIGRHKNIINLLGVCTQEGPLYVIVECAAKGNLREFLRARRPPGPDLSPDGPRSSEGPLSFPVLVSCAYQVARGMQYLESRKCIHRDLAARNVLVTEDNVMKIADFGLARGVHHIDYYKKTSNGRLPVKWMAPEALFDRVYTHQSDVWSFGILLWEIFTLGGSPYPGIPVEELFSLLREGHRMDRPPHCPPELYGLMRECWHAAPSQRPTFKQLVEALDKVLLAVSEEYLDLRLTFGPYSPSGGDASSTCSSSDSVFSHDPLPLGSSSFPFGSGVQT

In the case of `COc1cc(O)c(F)c(N(Cc2ncc[nH]2)c2ccc3ncc(-c4cnn(C)c4)nc3n2)c1` [Compound 96], the IC50 was 0.741 nM at FGFR1 (h); 1.58 nM on FGFR2 (h); 1.78 nM against FGFR4 (h); over 10000 nM in test [2]; over 10000 nM in test [3]; over 10000 nM in test [5]. Further, the “BAF3-FGFR1 (MIN IL3) pIC50” value in test [1] came to 8.08. In addition, the “BAF3-KDR (MIN IL3) pIC50” value in test [4] came to 5.89. In addition, in test [6], the “BAF3-FGFR4 pIC50” value amounted to 7.16.

`COc1cc(OC)cc(N(CC2COC2)c2ccc3ncc(-c4cnn(C)c4)nc3n2)c1` [Compound 142]: the IC50 on FGFR1 (h) is 16.2 nM; on FGFR2 (h), 7.94 nM; against FGFR4 (h), 30.2 nM; in test [2] it was over 10000 nM; in test [3] it was over 10000 nM; in test [5], over 10000 nM. Moreover, the “BAF3-FGFR1 (MIN IL3) pIC50” value in test [1] was determined as 5.49. Besides, the “BAF3-KDR (MIN IL3) pIC50” value in [4] is listed as under 5. In addition, in test [6], the “BAF3-FGFR4 pIC50” value was 5.10.

For the compound `COc1cc(/N=c2\ccc3ncc(-c4cnn(C)c4)nc3n2Cc2cc(C)no2)c(F)c(OC)c1` [Compound 184], the IC50 at FGFR1 (h) is 0.977 nM; at FGFR2 (h), 2.19 nM; on FGFR4 (h), 1.17 nM; in [2], over 10000 nM; in test [3], over 10000 nM; in [5], over 10000 nM. Moreover, in [1], the “BAF3-FGFR1 (MIN IL3) pIC50” value is about 8.34. Further, the “BAF3-KDR (MIN IL3) pIC50” value in test [4] is 6.71. The “BAF3-FGFR4 pIC50” value in test [6] is recorded as 8.03.

Regarding `COc1cc(OC)c(F)c(N(Cc2ncc[nH]2)c2ccc3ncc(N4CCOCC4)nc3n2)c1F` [Compound 215], the IC50 was 0.741 nM at FGFR1 (h); 2.09 nM at FGFR2 (h); 2.14 nM on FGFR4 (h); over 10000 nM in [2]; over 10000 nM in [3]; over 10000 nM in test [5]. The “BAF3-FGFR1 (MIN IL3) pIC50” value in [1] amounted to 8.25. In test [4], the “BAF3-KDR (MIN IL3) pIC50” value worked out at 5.91. Also, in [6], the “BAF3-FGFR4 pIC50” value came to 7.54.

Take `COc1cc(OC)cc(N(Cc2ncc[nH]2)c2ccc3ncc(-c4cn[nH]c4)nc3n2)c1` [Compound 141]: the IC50 at FGFR1 (h) was 0.603 nM; on FGFR2 (h) it was 0.933 nM; against FGFR4 (h), 0.603 nM; in [2] it was over 10000 nM; in test [3], over 10000 nM; in test [5] it was over 10000 nM. For the same compound, the “BAF3-FGFR1 (MIN IL3) pIC50” value in test [1] is given as 8.27. Besides, the “BAF3-KDR (MIN IL3) pIC50” value in [4] came to 5.87. Besides, the “BAF3-FGFR4 pIC50” value in [6] came to 7.40.

Turning to `COc1cc(/N=c2\ccc3ncc(-c4cnn(C)c4)nc3n2CC2CCOC2)c(F)c(OC)c1` (single isomer, unassigned) [Compound 169], the IC50 was about 0.933 nM on FGFR1 (h); 1.62 nM at FGFR2 (h); 0.977 nM at FGFR4 (h); over 10000 nM in test [2]; over 10000 nM in test [3]; over 10000 nM in test [5]. In addition, the “BAF3-FGFR1 (MIN IL3) pIC50” value in test [1] is recorded as 7.68. Also, the “BAF3-KDR (MIN IL3) pIC50” value in [4] came to 6.40. Besides, the “BAF3-FGFR4 pIC50” value in test [6] stood at 7.20.

With `COc1cc(OC)c(F)c(N(CC(=O)O)c2ccc3ncc(-c4cnn(C)c4)nc3n2)c1` [Compound 231], the IC50 is 4.79 nM at FGFR1 (h); 6.31 nM at FGFR2 (h); 17.8 nM against FGFR4 (h); over 10000 nM in test [2]; over 10000 nM in test [3]; over 10000 nM in test [5]. The “BAF3-FGFR1 (MIN IL3) pIC50” value in test [1] was found to be 5.27. Moreover, the “BAF3-KDR (MIN IL3) pIC50” value in test [4] was under 5. In addition, in test [6], the “BAF3-FGFR4 pIC50” value came out at 5.02.

As to `COc1cc(OC)cc(N(Cc2ncc[nH]2)c2ccc3ncc(-c4cccnc4)nc3n2)c1` [Compound 182], the IC50 on FGFR1 (h) was 1.7 nM; on FGFR2 (h) it was 2.04 nM; at FGFR4 (h) it was 2.34 nM; in test [2], over 10000 nM; in test [3] it was over 10000 nM; in test [5], over 10000 nM. In addition, the “BAF3-FGFR1 (MIN IL3) pIC50” value in test [1] stood at 7.60. Moreover, in [4], the “BAF3-KDR (MIN IL3) pIC50” value was 5.48. Further, the “BAF3-FGFR4 pIC50” value in test [6] is 7.17.

Consider `COc1cc(OC)c(F)c(N(CC2COC2)c2ccc3ncc(-c4cnn(C)c4)nc3n2)c1` [Compound 144], for which the IC50 on FGFR1 (h) is 3.89 nM; on FGFR2 (h), 2.82 nM; against FGFR4 (h), 5.25 nM; in test [2], over 10000 nM; in test [3] it was over 10000 nM; in test [5] it was over 10000 nM. Also, the “BAF3-FGFR1 (MIN IL3) pIC50” value in test [1] was found to be 6.44. For the same compound, in test [4], the “BAF3-KDR (MIN IL3) pIC50” value worked out at 5.19. Further, the “BAF3-FGFR4 pIC50” value in test [6] amounted to 6.13.

Turning to `CCn1cc(-c2cnc3ccc(N(Cc4ncc[nH]4)c4cc(OC)cc(OC)c4F)nc3n2)cn1` [Compound 223], the IC50 is 0.55 nM on FGFR1 (h); 1.58 nM on FGFR2 (h); 1.29 nM against FGFR4 (h); over 10000 nM in [2]; over 10000 nM in [3]; over 10000 nM in [5]. Further, the “BAF3-FGFR1 (MIN IL3) pIC50” value in test [1] was 8.85. In [4], the “BAF3-KDR (MIN IL3) pIC50” value was determined as 6.81. The “BAF3-FGFR4 pIC50” value in test [6] is 7.95.

The values are drawn from US9309242B2, “Substituted pyrido[2,3-b]pyrazines as FGFR kinase inhibitors” (priority 2011, dated 2016).
